{
  "source": "patent US12239686B2",
  "about": "“Immune checkpoint inhibitor combinations” (LYTIX BIOPHARMA AS, priority 2014, dated 2025)",
  "key": {"[1]": {"system": "K5627/Gleevec", "type": "cell-based, human", "details": "resistant", "protocol": "Tumor cells were grown as adherent monolayers or as suspensions at 37° C. in a humidified atmosphere (5% CO2, 95% air). The culture medium was RPMI 1640 containing 2 mM L-glutamine (Lonza, Belgium) and supplemented with 10% fetal bovine serum (FBS, Lonza). For experimental use, the adherent cells were detached from the culture flask by a 5-minute treatment with trypsin-versene (Lonza), diluted in Hanks' medium without calcium or magnesium (Lonza) and neutralized by addition of complete culture medium. Cells were counted in a hemocytometer and their viability was assessed by 0.25% trypan blue exclusion. […]\nThree independent experiments were performed, each concentration being tested in quadruplicate. […] At the end of treatments, the cytotoxic activity was evaluated by a MTS assay (see § 3.3). […]\nAt the end of the cells treatment, 40 μl of a 0.22 μm filtered freshly combined solution of MTS (20 ml at 2 mg/ml, Ref G1111, Batch 235897, Exp 03/2009, Promega, Charbonnières, France) and PMS (1 ml at 0.92 mg/ml, Ref P9625, Batch 065K0961, Sigma) in Dulbecco's Phosphate Buffered Saline (DPBS, Ref 17-513Q, Batch 6MB0152, Cambrex), were added in each well. […] Absorbency (OD) were measured at 490 nm in each well using VICTOR^3TM 1420 multilabeled counter (Wallac, PerkinElmer, Courtaboeuf, France). […]"}, "[2]": {"system": "murine CT26WT colon carcinoma", "experiment": "Murine CT26WT colon carcinoma tumours in mice, intratumoural treatment", "type": "in vivo", "details": "for Mean tumour size (mm^2) at day 1: prior to start of treatment", "protocol": "The administration takes place by intra-tumoural injection of LTX-315 dissolved in sterile saline (0.9% NaCl in sterile water).\nThe mice were divided into five groups, 8 mice in each group. When the tumours reached the desired size of 20 mm^2 the treatment by intra tumoural injection was initiated. Group one was treated solely on day 1, Group two on day 1 and 2, Group three on day 1 and 3 and Group four on day 1, 2 and 3. All daily treatments were one single injection of 1.0 mg LTX-315 dissolved in 50 μl (20 mg/ml). Group five was treated with the 50 μl of vehicle for LTX-315 (Group 5).\nWeighing and physical examination were used as health controls."}, "[3]": {"system": "CT26WT colon carcinoma cells", "experiment": "Re-challenge with CT26WT cells in mice with complete tumour regression", "type": "in vivo", "protocol": "Methods: Female Balb-c mice (n=4), previously treated with LTX-315, 1 mg) or (n=9); previously treated with LTX-315 0.5 or 1 mg) were re-inoculated (s.c. in the abdominal area) with either murine A20 B cell lymphoma cells or CT26WT colon carcinoma cells (5 million) respectively 6 weeks following initial treatment with LTX-315. Tumour growth was monitored for up to 36 days following re-inoculation."}, "[4]": {"system": "murine A20 B-cell lymphoma", "experiment": "Adoptive spleen cell transfer, A20 B-cell lymphoma model", "type": "in vivo, mice", "details": "donors: LTX-315 1 mg intratumoural once daily 3 days, complete regression", "protocol": "[…] Balb/c mice (n=32) were each inoculated with A20 cells (5 million in 50 μL s.c.) on the abdominal surface. Once tumours had reached 20 mm^2 they were injected with LTX-315 (1 mg) injected intratumourally, once daily for 3 days, in a volume of 50 μL. Tumour size (mm^2) and body weight were subsequently monitored and a further injection of LTX-315 was given if any tumour re-growth was observed. Subsequently, mice showing complete tumour regression were sacrificed and used as donors for transfer of splenocytes while naive donor mice were used as controls. Spleens from donor mice were excised and cells isolated. Naive receiver mice were irradiated and divided into 2 groups. Group 1 received isolated splenocytes from cured mice, whereas group 2 received isolated splenocytes from naive mice. Freshly prepared cells were injected (20×106 per 100 μl) via the tail vein. Twenty four hours later receiver mice were inoculated with 5 million murine A20 B-cell lymphoma cells on the abdominal surface as described above. Tumour size and body weight were monitored until the maximum tumour burden of ˜125 mm^2 was reached, or a serious adverse events occurred (i.e. wound formation due to tumour tissue necrosis) at which point mice were sacrificed."}, "[5]": {"system": "A375 cells", "experiment": "Release of cytochrome-C, ELISA of supernatant", "type": "cell-based, human", "details": "35 μM; 5, 15, 45 min", "protocol": "A375 cells were seeded as with HMGB1 studies, and treated with 35 μM for different time points (5, 15, 45). Supernatants were collected and concentrated as with HMGB1 studies, and samples from the supernatants were analyzed using a 4.5 hour solid form Cytochrome C-Elisa kit (R&D Systems, USA, #DCTC0) following the manufacturer's description. Shortly thereafter, a 50% diluted sample was analyzed and the optical density was determined using a microplate reader set at 450 nm, and […]. A standard curve was generated for each set of samples assayed. Samples were run in four parallels, and the cytochrome-c released into the supernatant was expressed as a fold over the level of cytochrome-c in the supernatant of untreated cells."}, "[6]": {"details": "Group 1, 1 mg intratumoural day 1"}, "[7]": {"details": "Group 2, 1 mg intratumoural days 1,2"}, "[8]": {"details": "Group 3, 1 mg intratumoural days 1,3"}, "[9]": {"details": "Group 4, 1 mg intratumoural days 1,2,3"}},
  "note": "Non-standard residues stand in square brackets, D forms with d. Residues, ends and D or L forms follow the SMILES beside them. Dip = N[C@H](C(=O)O)C(c1ccccc1)c1ccccc1",
  "data": [
    {"smiles": "NCCCC[C@H](NC(=O)[C@@H](NC(=O)[C@H](Cc1c[nH]c2ccccc12)NC(=O)[C@H](CCCCN)NC(=O)[C@H](CCCCN)NC(=O)[C@H](Cc1c[nH]c2ccccc12)NC(=O)[C@H](Cc1c[nH]c2ccccc12)NC(=O)[C@H](CCCCN)NC(=O)[C@@H](N)CCCCN)C(c1ccccc1)c1ccccc1)C(N)=O", "note": "[LTX-315, K-K-W-W-K-K-W-Dip-K-NH2] (H-KKWWKKW[Dip]K-NH2)", "values": [
      {"measurement": "IC50", "setting": "[1]", "value": 2980, "unit": "nM"},
      {"measurement": "Relapse of Tumour", "setting": "[2]; Group 1, 1 mg day 1", "value": 20, "unit": "%"},
      {"measurement": "Free of Tumour at end of Follow-Up", "setting": "[2]; Group 1, 1 mg day 1, n=8", "value": 50, "unit": "%"},
      {"measurement": "Mean tumour size (mm^2) on day 6", "setting": "[2]; [6]", "value": "4.343 ± 2.295", "unit": "mm^2"},
      {"measurement": "Mean tumour size (mm^2) on day 10", "setting": "[2]; [6]", "value": "7.171 ± 4.035", "unit": "mm^2"},
      {"measurement": "Mean tumour size (mm^2) on day 17", "setting": "[2]; [6]", "value": "3.712 ± 3.712", "unit": "mm^2"},
      {"measurement": "Mean tumour size (mm^2) at day 1", "setting": "[2]; [6]", "value": "22.69 ± 0.4070", "unit": "mm^2"},
      {"measurement": "Relapse of Tumour", "setting": "[2]; Group 2, 1 mg days 1,2", "value": 71, "unit": "%"},
      {"measurement": "Free of Tumour at end of Follow-Up", "setting": "[2]; Group 2, 1 mg days 1,2, n=8", "value": 25, "unit": "%"},
      {"measurement": "Mean tumour size (mm^2) on day 6", "setting": "[2]; [7]", "value": "1.458 ± 1.458", "unit": "mm^2"},
      {"measurement": "Mean tumour size (mm^2) on day 10", "setting": "[2]; [7]", "value": "5.058 ± 4.014", "unit": "mm^2"},
      {"measurement": "Mean tumour size (mm^2) on day 17", "setting": "[2]; [7]", "value": "6.644 ± 3.430", "unit": "mm^2"},
      {"measurement": "Mean tumour size (mm^2) at day 1", "setting": "[2]; [7]", "value": "22.90 ± 1.155", "unit": "mm^2"},
      {"measurement": "Relapse of Tumour", "setting": "[2]; Group 3, 1 mg days 1,3", "value": 29, "unit": "%"},
      {"measurement": "Free of Tumour at end of Follow-Up", "setting": "[2]; Group 3, 1 mg days 1,3, n=8", "value": 62.5, "unit": "%"},
      {"measurement": "Mean tumour size (mm^2) on day 6", "setting": "[2]; [8]", "value": "2.983 ± 2.983", "unit": "mm^2"},
      {"measurement": "Mean tumour size (mm^2) on day 10", "setting": "[2]; [8]", "value": "10.85 ± 7.553", "unit": "mm^2"},
      {"measurement": "Mean tumour size (mm^2) on day 17", "setting": "[2]; [8]", "value": "0.00 ± 0.00", "unit": "mm^2"},
      {"measurement": "Mean tumour size (mm^2) at day 1", "setting": "[2]; [8]", "value": "21.43 ± 1.141", "unit": "mm^2"},
      {"measurement": "Free of Tumour at end of Follow-Up", "setting": "[2]; Group 4, 1 mg days 1,2,3, n=8", "value": 62.5, "unit": "%"},
      {"measurement": "Tumour Response: complete response", "setting": "[2]; Group 4, 1 mg days 1,2,3, n=8", "value": 100, "unit": "%"},
      {"measurement": "Mean tumour size (mm^2) on day 6", "setting": "[2]; [9]", "value": "0.00 ± 0.00", "unit": "mm^2"},
      {"measurement": "Mean tumour size (mm^2) on day 10", "setting": "[2]; [9]", "value": "0.00 ± 0.00", "unit": "mm^2"},
      {"measurement": "Mean tumour size (mm^2) on day 17", "setting": "[2]; [9]", "value": "1.308 ± 1.308", "unit": "mm^2"},
      {"measurement": "Mean tumour size (mm^2) at day 1", "setting": "[2]; [9]", "value": "24.09 ± 1.653", "unit": "mm^2"},
      {"measurement": "treated animals observed with a complete tumour response", "setting": "[2]; all four LTX-315 groups together", "value": "27 of the 32"},
      {"measurement": "toxic or other adverse effects", "setting": "[2]; all treated groups", "value": "No toxic or other adverse effects besides local necrotic tissue and wound formation were observed"},
      {"measurement": "tumour growth after re-inoculation in comparison with control animals", "setting": "[3]; 9 mice previously treated with LTX-315 0.5 or 1 mg, P<0.01", "value": "inhibition (P<0.01) of tumour growth was observed"},
      {"measurement": "animals with complete regression after re-inoculation", "setting": "[3]; of 9 re-inoculated mice", "value": 2, "unit": "animals"},
      {"measurement": "mice in which inhibition was observed after re-inoculation", "setting": "[3]; of 9 re-inoculated mice", "value": 7, "unit": "mice"},
      {"measurement": "tumour growth in irradiated recipients of splenocytes from LTX-315-cured donors vs naive donors", "setting": "[4]", "value": "Inhibition of tumour growth was observed"},
      {"measurement": "cytochrome-C in the supernatant vs untreated control cells", "setting": "[5]", "value": "three times more cytochrome-C in the supernatant compared to untreated control cells"}
    ]}
  ]
}
